Measurements: patent US11993640B2, “Treating inflammatory lung disease” (United States Government as represented by the Department …, priority 2019, dated 2024)
Entries after “also recorded” stand apart in the source; their conditions may differ. Non-standard residues stand in square brackets, D forms with d. Residues, ends and D or L forms follow the SMILES beside them. *: point of attachment. Phenylacetyl(2,3,4,5,6-F5) = O=C(Cc1c(F)c(F)c(F)c(F)c1F)*; Phe(F5) = N[C@@H](Cc1c(F)c(F)c(F)c(F)c1F)C(=O)O; Phe(4-Cl) = N[C@@H](Cc1ccc(Cl)cc1)C(=O)O; hArg = N=C(N)NCCCC[C@H](N)C(=O)O; 12Ado = NCCCCCCCCCCCC(=O)O; Nle = CCCC[C@H](N)C(=O)O; Abu = CC[C@H](N)C(=O)O

Tests used:
PC3 xenograft = assay: Xenograft tumor growth in nude mice, prostate cancer PC3; format: in vivo; conditions: Panel N, 8 weeks, 5 μg/day s.c.
Protocol: (§1) The peptides' activity was compared with GHRH antagonist MIA-602. All statistical analyzses were performed from comparing GHRA antagonists to non-treated tumor (control).
(§2) Peptides and chemicals. GHRH antagonists MIA-602 and AVR-GHRH antagonists (see Table 2 above) were synthesized by solid phase methods and purified by HPLC. The peptides were dissolved in DMSO and further diluted in 10% 1, 2-propanediol. The final concentration of peptides was 50 µg/ml in 10% 1, 2-propanediol containing 0.1% of DMSO.
(§3) Cell culture. Human cancer cell lines including pancreatic (PANC-1 and CFPAC-1), lung (HCC827 and H460), stomach (NCI-N87), prostate (PC3), brest (MX-1 and HCC-1806), colorectal (HT-29), and ovarian (SK-OV-3 and OVCAR-3) were obtained from the American Type Culture Collection (ATCC) and cultured at 37° C. in a humidified 95% air/5% CO2 atmosphere in the medium recommended by ATCC.
(§4) Xenograft models of human cancers in nude mice. Female athymic (NCr nu/nu) nude mice, 5-to 6-weeks-old, obtained from the Envigo labs (Tampa, FL), were housed in laminar airflow cabinets under pathogen-free conditions with a 12-h light/12-h dark schedule, and were fed autoclaved standard chow and water. To generate mice with xenografted tumors, tumor xenografts were initiated by subcutaneous (s.c.) injection of […] human cancer cells into female nude mice. After about 4 weeks the resulting tumors were dissected and collected after removing necrosis tissues. The tumors were then cut into particles with size of ˜3 mm3 and transplanted s.c. by trocar needle into experimental animals. When tumors grew to the size of 50-60 mm3 (by volume), mice were randomized into groups and treated daily for 4-8 weeks by subcutaneous administration of 5 μg of GHRH antagonists MIA-602 or AVR-compounds (2-10 μg as indicated), or vehicle solutions (0.1% DMSO in 10% 1, 2-propanediol) respectively. Tumor sizes were measured weekly.
(§5) Statistical analysis. One-way ANOVA followed by Bonferroni comparison were performed. Data are expressed as Mean±SEM. […]

[1] = biological target: T1, membrane GHRH-receptors on human anterior pituitary cells (Homo sapiens, UniProt Q02643); assay: Competitive receptor binding, displacement of 125I-[His1,Nle27]-hGH-RH(1-32)NH2 from human pituitary membranes
T1 construct: Human pituitary was purchased from the National Hormone and Peptide Program; tissue National Hormone and Peptide Program; host or cells: human pituitary membrane fractions
T1 sequence (Q02643 23-423): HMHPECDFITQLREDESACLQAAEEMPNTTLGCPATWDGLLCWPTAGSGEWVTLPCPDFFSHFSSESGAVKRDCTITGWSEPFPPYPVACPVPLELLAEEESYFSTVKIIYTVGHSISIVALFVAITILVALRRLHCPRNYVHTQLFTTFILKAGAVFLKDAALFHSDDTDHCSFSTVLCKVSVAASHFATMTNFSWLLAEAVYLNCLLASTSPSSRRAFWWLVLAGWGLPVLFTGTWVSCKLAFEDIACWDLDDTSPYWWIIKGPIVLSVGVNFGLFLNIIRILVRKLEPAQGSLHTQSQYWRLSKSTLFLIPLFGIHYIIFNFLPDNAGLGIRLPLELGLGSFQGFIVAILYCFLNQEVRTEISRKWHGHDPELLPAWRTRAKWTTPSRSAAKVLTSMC
Protocol: Receptor binding affinities in vitro. Preparation of human pituitary membrane fractions and receptor binding of analogs of GH-RH were performed (Halmos G, Rekasi Z, Szoke B, Schally A V. (1993) Receptor 3:87-97). Human pituitary was purchased from the National Hormone and Peptide Program. […] Relative affinities compared to hGH-RH(1-29)NH2 were calculated as the ratio of IC50 (dose causing 50% inhibition of specific binding to receptors) of the tested peptides to the IC50 of hGH-RH(1-29)NH2. The values were calculated from technical duplicate tubes.
Nineteen new AVR analogs of GHRH were tested in the receptor binding assay. Table 6 presents the IC50 values of GHRH antagonists to membrane GHRH-receptors binding on human anterior pituitary cells.

HT-29 xenograft = assay: Xenograft tumor growth in nude mice, colon cancer HT-29; format: in vivo; conditions: Panel G, 6 weeks
Protocol: as §1, §2, §3, §4
(§6) Statistical analysis. One-way ANOVA followed by Bonferroni comparison were performed. Data are expressed as Mean±SEM. To determine statistical significance between animal groups, two-tailed Student's t-test was conducted. Differences were considered significant when p<0.05.
(§7) Results. […] FIG. 1A-N represents in vivo inhibition of tumor growth during the treatment with GHRH antagonist MIA-602 and selected AVR antagonists in nude mice xenografted with various human tumors including pancreatic cancer PANC-1 (FIG. 1A) and CFPAC-1 (FIG. 1I); lung cancer HCC827 (FIGS. 1B, C) and H460 (FIG. 1H); stomach cancer N87 (FIGS. 1D-F); colon cancer HT-29 (FIG. 1G); breast cancer MX-1 and HCC-1806 (FIGS. 1J, K); ovarian cancer SK-OV-3 and OVACAR-3 (FIGS. 1L, M) and prostate cancer PC3 (FIG. 1N). See also Table 5.

HCC827 xenograft = assay: Xenograft tumor growth in nude mice, lung cancer HCC827; format: in vivo; conditions: 5 μg/day s.c., vs control
Protocol: as §1, §2, §3, §4, §6, §7

OVCAR-3 xenograft = assay: Xenograft tumor growth in nude mice, ovarian cancer OVCAR-3; format: in vivo; conditions: Panel M, 9 weeks
Protocol: as §1, §2, §3, §4, §5

rat pituitary cells = assay: Inhibition of GHRH(1-29)NH2-stimulated GH release from rat pituitary cells (ELISA); format: cell-based; conditions: analog 20 nM
Protocol: In vitro assessment of the antagonistic activity of GHRH analogs. Rats were decapitated and pituitaries were collected in pre-warmed HBSS (Hanks' Balanced Salt Solution). Tissue was then cut into small pieces and digested in HBSS medium containing 3% BSA, 50 μg/ml gentamycin and 0.5% collagenase for 50 minutes at 37° C. Cells were further dispersed by pipetting and passed through a 100 μm cell strainer with the addition of DMEM containing 50 μg/ml gentamycin, 10% horse serum and 2.5% FBS (growth medium). Cells were harvested at 475×g for 2 minutes, resuspended in fresh growth medium and seeded onto poly-D-lysine-coated 24-well plates (7 pituitaries/plate). Cells were left to recover for 4 days. Growth medium was then replaced with serum-free DMEM for 4 hours and GHRH analogs (at concentration of 20 nM) were added in DMEM containing 0.1% BSA for 30 minutes. Cells were replenished with medium containing the same concentration of the analogs and 1 nM GHRH(1-29)NH2 for 30 minutes. Medium from this step was collected, centrifuged at 800 g for 3 minutes and GH concentration was determined by ELISA (ALPCO Diagnostics, Mill Valley, CA) according to the manufacturer's instruction.

NCI-N87 xenograft = assay: Xenograft tumor growth in nude mice, stomach cancer N87; format: in vivo; conditions: Panel F, 4 weeks, 5 μg/day s.c., vs control
Protocol: as §1, §2, §3
as §4, with “mice were randomized into groups and treated daily for 4-8 weeks by subcutaneous administration” left out
as §6, §7

SK-OV-3 xenograft = assay: Xenograft tumor growth in nude mice, ovarian cancer SK-OV-3; format: in vivo; conditions: Panel L, 7 weeks
Protocol: as §1, §2, §3, §4, §6, §7

| Compound | Tumor Growth % (PC3 xenograft) | Binding affinity to membrane receptors of human pituitary cells [1] | IC50 ([1]; human anterior pituitary membranes, mean of two to three determinations, read-out: IC50) | Tumor Growth % (HT-29 xenograft; 5 μg/day s.c.) | % Inhibition (HCC827 xenograft; Panel B, 7 weeks) | % Inhibition (HCC827 xenograft; Panel C, 8 weeks) | Tumor Growth % (OVCAR-3 xenograft; 2.5 μg/day s.c.) | Tumor Growth % (OVCAR-3 xenograft; 5 μg/day s.c.) | Inhibitory effect on the release of GH compared with MIA-602 (rat pituitary cells) | % Inhibition (NCI-N87 xenograft) | Tumor Growth % (SK-OV-3 xenograft; 2.5 μg/day s.c.) | Tumor Growth % (SK-OV-3 xenograft; 5 μg/day s.c.) | Tumor Growth % (HT-29 xenograft; 2 μg/day s.c.) |
| --- | --- | --- | --- | --- | --- | --- | --- | --- | --- | --- | --- | --- | --- |
| CCCC[C@H](NC(=O)[C@@H](NC(=O)[C@H](CC(=O)O)NC(=O)[C@H](CCC(N)=O)NC(=O)[C@H](CC(C)C)NC(=O)[C@H](CC(C)C)NC(=O)[C@H](CCCCN)NC(=O)[C@H](CCCNC(=N)N)NC(=O)[C@H](C)NC(=O)[C@H](CO)NC(=O)[C@H](CC(C)C)NC(=O)[C@H](CCC(N)=O)NC(=O)[C@H](CC)NC(=O)[C@H](CC(C)C)NC(=O)[C@@H](NC(=O)[C@H](CCCCN)NC(=O)[C@H](CCCNC(=N)N)NC(=O)[C@H](Cc1c(F)c(F)c(F)c(F)c1F)NC(=O)[C@H](CCCCNC(=N)N)NC(=O)[C@H](C)NC(=O)[C@@H](NC(=O)[C@H](Cc1ccc(Cl)cc1)NC(=O)[C@@H](NC(=O)[C@H](C)NC(=O)[C@H](CC(=O)O)NC(=O)[C@@H](CCCNC(=N)N)NC(=O)[C@H](Cc1ccc(O)cc1)NC(=O)CCCCCCCCCCCNC(=O)Cc1c(F)c(F)c(F)c(F)c1F)[C@@H](C)CC)[C@@H](C)O)C(C)C)[C@@H](C)CC)C(=O)N[C@H](CCCNC(=N)N)C(=O)N[C@@H](CCCCNC(=N)N)C(=O)NCCCCCCCCCCCC(=O)NC [AVR-354] ({Phenylacetyl(2,3,4,5,6-F5)-12Ado}-Y[dR]DAI[Phe(4-Cl)]TA[hArg][Phe(F5)]RKVL[Abu]QLSARKLLQDI[Nle][dR][hArg][12Ado]-NHMe) | 343.6% | higher binding affinity in comparison to MIA-602; also recorded: highest binding affinities | 0.14 nM | 417.90% |  |  |  |  |  |  |  |  |  |
| CCCC[C@H](NC(=O)[C@@H](NC(=O)[C@H](CC(=O)O)NC(=O)[C@H](CCC(N)=O)NC(=O)[C@H](CC(C)C)NC(=O)[C@H](CC(C)C)NC(=O)[C@H](CCCCN)NC(=O)[C@H](CCCNC(=N)N)NC(=O)[C@H](C)NC(=O)[C@H](CO)NC(=O)[C@H](CC(C)C)NC(=O)[C@H](CCC(N)=O)NC(=O)[C@H](CC)NC(=O)[C@H](CC(C)C)NC(=O)[C@@H](NC(=O)[C@H](CCCCN)NC(=O)[C@H](CCCNC(=N)N)NC(=O)[C@H](Cc1c(F)c(F)c(F)c(F)c1F)NC(=O)[C@H](CCCCNC(=N)N)NC(=O)[C@H](C)NC(=O)[C@@H](NC(=O)[C@H](Cc1ccc(Cl)cc1)NC(=O)[C@@H](NC(=O)[C@H](C)NC(=O)[C@H](CC(=O)O)NC(=O)[C@@H](CCCNC(=N)N)NC(=O)[C@H](Cc1ccc(O)cc1)NC(=O)CCCCCCCCCCCNC(=O)Cc1c(F)c(F)c(F)c(F)c1F)[C@@H](C)CC)[C@@H](C)O)C(C)C)[C@@H](C)CC)C(=O)N[C@H](CCCNC(=N)N)C(=O)N[C@@H](CCCCNC(=N)N)C(=O)NCCCCCCCCCCCC(N)=O [AVR-353, 5FPhAC-Ada-Tyr-DArg-Asp-Ala-Ile-Cpa-Thr-Ala-Har-5FPhe-Arg-Lys-Val-Leu-Abu-Gln-Leu-Ser-Ala-Arg-Lys-Leu-Leu-Gln-Asp-Ile-Nle-DArg-Har-Ada-NH2] ({Phenylacetyl(2,3,4,5,6-F5)-12Ado}-Y[dR]DAI[Phe(4-Cl)]TA[hArg][Phe(F5)]RKVL[Abu]QLSARKLLQDI[Nle][dR][hArg][12Ado]-NH2) | 496.7% | higher binding affinity in comparison to MIA-602; also recorded: highest binding affinities |  | 494.70% | 71.0% | 50.0% | 357.0% | 255.2% | higher inhibitory effects than MIA-602 | 65.0% | 1056.0% | 910.7% | 549.30% |
